Among the data in patent US20080214582A1, “Purine Derivatives as Inhibitors of Receptor Tyrosine Kinase Activity” (priority 2005, published 2008) are IC50 values, retold here.

Test [1] has as its target Tie-2 kinase (Homo sapiens, UniProt Q02763). Put plainly: Tie-2 kinase inhibition (flashplate, poly(Glu,Tyr), 33P-ATP). Format: biochemical. On the procedure:
The TIE-2 tests can be carried out, for example, analogously to the methods indicated in WO 02/44156.
The assay determines the inhibiting activity of the substances to be tested in the phosphorylation of the substrate poly(Glu, Tyr) by Tie-2 kinase in the presence of radioactive ^33P-ATP. The phosphorylated substrate binds to the surface of a “flashplate” microtitre plate during the incubation time. After removal of the reaction mixture, the microtitre plate is washed a number of times and the radioactivity on its surface is subsequently measured. An inhibiting effect of the substances to be measured results in lower radioactivity compared with an undisturbed enzymatic reaction.

The target of test [2] is T1, VEGFR (KDR) (Homo sapiens, UniProt P35968).
T1 construct: cloning the cytoplasmic domain of the KDR kinase as an in frame fusion at the carboxyl terminus of the GST gene; made in house; host or cells: Spodoptera frugiperda Sf21 insect cells, baculovirus vector pAcG2T
T1 sequence (P35968 786-1356 limits assumed): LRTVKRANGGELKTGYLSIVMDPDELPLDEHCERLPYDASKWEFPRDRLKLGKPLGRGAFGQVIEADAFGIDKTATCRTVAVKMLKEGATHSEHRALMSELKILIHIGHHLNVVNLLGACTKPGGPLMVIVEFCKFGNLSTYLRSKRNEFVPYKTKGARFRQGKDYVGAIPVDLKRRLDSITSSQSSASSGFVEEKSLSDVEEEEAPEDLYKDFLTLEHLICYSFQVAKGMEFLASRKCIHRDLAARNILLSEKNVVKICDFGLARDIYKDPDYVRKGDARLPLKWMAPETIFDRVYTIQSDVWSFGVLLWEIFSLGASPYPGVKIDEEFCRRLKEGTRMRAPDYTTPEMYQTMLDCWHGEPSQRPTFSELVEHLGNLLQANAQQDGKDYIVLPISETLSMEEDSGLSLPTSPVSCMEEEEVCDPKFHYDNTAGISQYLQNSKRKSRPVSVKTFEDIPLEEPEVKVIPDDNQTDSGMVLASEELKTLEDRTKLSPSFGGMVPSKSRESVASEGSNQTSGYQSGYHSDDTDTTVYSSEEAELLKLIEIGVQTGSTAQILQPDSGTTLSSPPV
Description: VEGF receptor kinase assay (pEY substrate, 33P incorporation). Format: biochemical. As to conditions: kinase inhibition. On the procedure: VEGF receptor kinase activity is measured by incorporation of radiolabelled phosphate into 4:1 polyglutamic acid/tyrosine substrate (pEY). The phosphorylated pEY product is trapped on a filter membrane and the incorporation of radiolabelled phosphate is quantified by scintillation counting.
The intracellular tyrosine kinase domains of human KDR (Terman, B. I. et al. Oncogene (1991) Vol. 6, pp. 1677-1683.) and Flt-1 (Shibuya, M. et al. Oncogene (1990) Vol. 5, pp. 519-524) were cloned as glutathione S-transferase (GST) gene fusion proteins. This was accomplished by cloning the cytoplasmic domain of the KDR kinase as an in frame fusion at the carboxyl terminus of the GST gene. Soluble recombinant GST-kinase domain fusion proteins were expressed in Spodoptera frugiperda (Sf21) insect cells (Invitrogen) using a baculovirus expression vector (pAcG2T, Pharmingen).
1. Sf21 cells were infected with recombinant virus at a multiplicity of infection of 5 virus particles/cell and grown at 27° C. for 48 hours. 2. All steps were performed at 4° C. Infected cells were harvested by centrifugation at 1000×g and lysed at 4° C. for 30 minutes with 1/10 volume of lysis buffer followed by centrifugation at 100000×g for 1 hour. The supernatant was then passed over a glutathione Sepharose acid (Pharmacia) equilibrated with lysis buffer and washed with 5 volumes of the same buffer followed by 5 volumes of wash buffer. Recombinant GST-KDR protein was eluted with wash buffer/10 mM reduced glutathione (Sigma) and dialysed against dialysis buffer.
1. Add 5 μl of inhibitor or control to the assay in 50% DMSO. 2. Add 35 μl of reaction mixture containing 5 μl of 10× reaction buffer, 5 μl of 25 mM ATP/10 μCi[^33P]ATP (Amersham) and 5 μl of 10× substrate. 3. Start the reaction by the addition of 10 μl of KDR (25 nM) in enzyme dilution buffer. 4. Mix and incubate at room temperature for 15 minutes. 5. Stop the reaction by the addition of 50 μl of stop solution. 6. Incubate at 4° C. for 15 minutes. 7. Transfer a 90 μl aliquot to filter plate. 8. Aspirate and wash 3 times with wash solution. 9. Add 30 μl of scintillation cocktail, seal plate and count in a Wallace Microbeta scintillation counter.

Tie-2 kinase, sequence (Q02763 23-1124): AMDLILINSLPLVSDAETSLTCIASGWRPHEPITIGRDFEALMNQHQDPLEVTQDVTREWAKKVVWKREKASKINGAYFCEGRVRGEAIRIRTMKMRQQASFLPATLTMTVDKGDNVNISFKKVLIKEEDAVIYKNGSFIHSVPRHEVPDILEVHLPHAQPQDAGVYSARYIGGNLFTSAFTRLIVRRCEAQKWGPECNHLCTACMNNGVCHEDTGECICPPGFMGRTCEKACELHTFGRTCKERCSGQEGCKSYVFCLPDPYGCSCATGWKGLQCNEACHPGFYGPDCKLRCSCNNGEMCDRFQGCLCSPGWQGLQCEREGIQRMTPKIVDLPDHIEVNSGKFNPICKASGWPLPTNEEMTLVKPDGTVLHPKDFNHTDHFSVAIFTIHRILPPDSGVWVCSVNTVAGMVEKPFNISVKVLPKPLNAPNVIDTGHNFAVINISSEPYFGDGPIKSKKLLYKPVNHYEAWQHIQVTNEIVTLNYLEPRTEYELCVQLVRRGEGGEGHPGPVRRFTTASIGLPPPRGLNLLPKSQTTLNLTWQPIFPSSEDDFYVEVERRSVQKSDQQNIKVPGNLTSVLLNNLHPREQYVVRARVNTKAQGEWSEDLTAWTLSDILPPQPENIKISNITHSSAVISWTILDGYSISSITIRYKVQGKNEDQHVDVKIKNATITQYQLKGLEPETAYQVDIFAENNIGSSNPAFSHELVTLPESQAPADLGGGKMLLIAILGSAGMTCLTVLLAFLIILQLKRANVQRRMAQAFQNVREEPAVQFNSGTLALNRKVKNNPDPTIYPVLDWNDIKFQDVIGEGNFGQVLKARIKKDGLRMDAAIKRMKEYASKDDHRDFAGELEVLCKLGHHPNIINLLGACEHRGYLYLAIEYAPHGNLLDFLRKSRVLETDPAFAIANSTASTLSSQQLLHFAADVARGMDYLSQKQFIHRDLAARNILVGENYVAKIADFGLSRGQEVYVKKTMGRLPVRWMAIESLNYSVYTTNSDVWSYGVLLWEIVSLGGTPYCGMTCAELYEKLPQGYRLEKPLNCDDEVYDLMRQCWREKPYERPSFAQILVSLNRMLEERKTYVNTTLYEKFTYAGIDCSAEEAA

As for `Nc1ncnc2c1ncn2-c1ccc(NC(=O)Nc2cc(C(F)(F)F)ccc2OC2CCNC2)cc1` (stereo not shown) [Compound 1, 1-[4-(6-aminopurin-9-yl)phenyl]-3-[2-(pyrrolidin-3-yloxy)-5-trifluoromethylphenyl]urea], the IC50 in test [1] is 34.3 nM; in test [2], 88 nM.
On to `Nc1ncnc2c1ncn2-c1ccc(NC(=O)Nc2cccc(C(F)(F)F)c2)cc1` [Compound 2, 1-[4-(6-aminopurin-9-yl)phenyl]-3-(3-trifluoromethylphenyl)urea], for which the IC50 came out at 14 nM in test [1] and 3.6 nM in test [2].
On to `Nc1ncnc2c1ncn2-c1ccc(NC(=O)Nc2cc(C(F)(F)F)ccc2F)cc1` [Compound 4, 1-[4-(6-aminopurin-9-yl)phenyl]-3-(2-fluoro-5-trifluoromethylphenyl)urea], for which the IC50 amounted to 49 nM in test [1] and 5.7 nM in test [2].
As for `Nc1ncnc2c1ncn2-c1ccc(NC(=O)Nc2cccc(OC(F)(F)F)c2)cc1` [Compound 5, 1-[4-(6-aminopurin-9-yl)phenyl]-3-(3-trifluoromethoxyphenyl)urea], the values for the IC50 in test [1] and in test [2] were 35 nM and 5 nM, respectively.
Turning to `Nc1ncnc2c1ncn2-c1ccc(NC(=O)Nc2cc(C(F)(F)F)ccn2)cc1` [Compound 6, 1-[4-(6-aminopurin-9-yl)phenyl]-3-(4-trifluoromethylpyridin-2-yl)urea], the values for the IC50 in test [1] and in test [2] were 100 nM and 4.6 nM, respectively.
Regarding `Nc1ncnc2c1ncn2-c1ccc(NC(=O)Nc2cc(C(F)(F)F)ccc2-n2cncn2)cc1` [Compound 9, 1-[4-(6-aminopurin-9-yl)phenyl]-3-(2-[1,2,4]triazol-1-yl-5-trifluoromethylphenyl)urea], the IC50 in test [1] came out at 12.5 nM; in test [2], 7.7 nM.
Turning to `Nc1ncnc2c1ncn2-c1ccc(NC(=O)Nc2ccc(OC3CCNC3)c(C(F)(F)F)c2)cc1` (stereo not shown) [Compound 11, 1-[4-(6-aminopurin-9-yl)phenyl]-3-[4-(pyrrolidin-3-yloxy)-3-trifluoromethylphenyl]urea], the IC50 in test [1] amounted to 110 nM; in test [2], 4.4 nM.
Regarding `CC(C)(C)c1cc(NC(=O)Nc2ccc(-n3cnc4c(N)ncnc43)cc2)no1` [Compound 15, 1-[4-(6-aminopurin-9-yl)phenyl]-3-(5-tert-butylisoxazol-3-yl)urea], the IC50 in test [1] was 19.5 nM; in test [2] it was 2 nM.
